The values that follow come from patent US20250352588A1, “EFFECT OF A PROBIOTIC COMPOSITION ON VAGINAL LACTOBACILLUS SPECIES” (INTERNATIONAL N&H DENMARK APS, priority 2021, published 2025).

The structures appear in SMILES notation.

In assay [1] the test system is Lactobacillus crispatus 13331. Kind of assay: Growth experiments with probiotic supernatant and biogenic amines (OD600, 44 h). In kind it is cell-based. The following applies: highest physiological concentration (cadaverine 4990 μM, putrescine 3179 μM); putrescine effect from 0.5 h to end of experiment. How it is done: The growth experiment was performed as described above but with some modifications. The Lactobacillus crispatus strain was cultured in SVF media (control), and in the SVF media containing one of the biogenic amines, and in the SVF media containing one of the biogenic amines and probiotic supernatant. The effect of all five biogenic amines was investigated independently on the pure culture of Lactobacillus crispatus 13331. Each test condition was investigated in triplicates in the honey-comb plate. […] The growth study was performed in SVF pH 4.5 using Bioscreen© C system measuring the optical density at 600 nm every 30 min for 44 h at 37° C. […] Growth experiments were performed in three independent biological replicates.

Assay [2] relates to L. crispatus strains. The following applies: Borgogna et al., 2021; cited from earlier work.

As to `NCCCCCN` [cadaverine], the “growth in the presence of biogenic amine alone vs strain alone (control)” value in assay [1] is recorded as “no statistically significant difference in growth”.

As for `NCCCCN` [putrescine], in assay [1], the “growth in the presence of biogenic amine alone vs strain alone (control)” value is “significant reduction in the growth”. Moreover, the “effect on growth of L. crispatus strains” value in assay [2] was “negatively affect the growth”.
